Laboratory results published in patent US8486900B2, “Method for preparing a Centella asiatica extract rich in madecassoside and in terminoloside” (Bayer Consumer Care AG, priority 2002, dated 2013).

Tests used:
Assay type in all cases: cell-based
[1] = tested on: human keratinocytes, strain K02-1H4; assay: Cytotoxicity, Neutral Red assay on human keratinocytes strain K02-1H4; conditions: for Viability (72 h), % of control: Example 12, K02-1H4, 72 h
Protocol: In addition, added to the cytotoxicity study was an assay on human keratinocytes, strain K02-1H4, in order to confirm that the concentrations were nontoxic on the target cells.
[…] […] The cell viability was determined by means of a Neutral Red assay.
Added to the cytotoxicity study was an assay on human keratinocytes (strain K02-1H4) in order to confirm the nontoxicity of the concentrations on the “target” cells. Table 24 below groups together all the results (cell viability as % of control).

PGE-2 = assay: PMA-induced release of PGE-2 by human keratinocytes; conditions: for PGE-2 (extracellular): Example 12, K02-1H6, PMA 10 ng/ml, 48 h + 24 h
Protocol: The principle of the assay is based on evaluating the production of pro-inflammatory cytokines by human keratinocytes in response to an irritative stress. […]
Given the lack of effect of IFN-γ on the production and release of PGE-2, the anti-inflammatory effect of the active agents was studied on normal human keratinocytes (strain K02-1H6) stimulated with PMA. Each active agent was tested at 4 concentrations:
1. Treatment of the cells, for 48 h, with the product being studied before induction of the irritative stress.
2. Induction of the irritative stress: PMA (10 ng/ml).
3. Incubation of the “activated” cells, for 24 h, in the presence of the product being studied.
4. Assay of PGE-2 (extracellular) and assay of cellular proteins.
Tables 37 to 39 below group together the amounts of PGE-2 (pg/μg prot.) obtained after activation of the cells (+PMA), and also the basal amounts (−PMA). The PMA-induced production of PGE-2 and the anti-inflammatory activity (AIA) were calculated, for each concentration, according to: PGE-2 production=[(PGE-2(+PMA)−PGE-2(−PMA)] AIA=[(PGE-2 production(control cells)−PGE-2 production(treated cells))/PGE-2 production(control cells)]×100

[2] = tested on: HaCaT human keratinocytes; assay: Cytotoxicity, Neutral Red colorimetric assay on HaCaT human keratinocytes; conditions: for Viability (24 h), % of control / Viability (72 h), % of control: Example 12, HaCaT
Protocol: The cytotoxicity was studied on HaCaT human keratinocytes seeded into 96-well plates at a rate of 20×10^3, broad range, and 10×10^3, limited range, cells per well. The cell viability is evaluated by means of a colorimetric assay with Neutral Red. Neutral Red is a weakly cationic dye that penetrates cell membranes by means of a nonionic diffusion phenomenon and binds intracellularly to the phosphate and/or carboxylic groups of the lysosomal matrix. Modifications in the accumulation and retention of Neutral Red are observed when the cell membranes are damaged. The optical density of the solution obtained after incubation of the cells in the presence of Neutral Red is therefore proportional to the number of living cells.
A broad range of 9 concentrations, from 0.001 to 1 mg/ml, was initially tested. The various test solutions were prepared in DMEM medium, […], supplemented with 10 vol % of FCS, fetal calf serum. […] The cell viability was evaluated by means of a Neutral Red colorimetric assay, after 72 hours of incubation. […] From 1 mg/ml, a slight dose-dependent cytotoxic effect is observed. […]
A second limited range of between 0.075 and 5 mg/ml was tested. […] The cell viability was evaluated by means of a Neutral Red colorimetric assay, after 72 hours of incubation. The results obtained were similar to those recorded in the absence of DMSO.

IL-8 = assay: IFN-γ-induced release of IL-8 by normal human keratinocytes; conditions: for IL-8: Example 12, K02-1H6, IFN-γ 1000 U/ml, 48 h + 24 h
Protocol: In order to evaluate the anti-inflammatory activity of terminoloside, of madecassoside and of the mixture of heterosides, we studied the modulatory effects of these three active agents with respect to the production and release of proinflammatory epidermal cytokines (IL-1α, IL-8, PGE-2) by human keratinocytes in culture, subjected to an irritative stress induced either with interferon-gamma (IFN-γ) or with PMA. Human keratinocytes were isolated from human skin. The cells were cultured in serum-free KGM medium (Keratinocyte Growth Medium, sold by the company Clonetics®), according to the usual techniques set up in the laboratory, at 37° C. in a humid air-CO2 (95%-5%) atmosphere. The cells were seeded into 25 cm^2 flasks and passaged regularly before reaching confluency. The principle of the assay is based on evaluating the production of proinflammatory cytokines by human keratinocytes, in response to an irritative stress. The method is based on measuring the intracellular amount of IL-1α and of the amounts of IL-8 and of PGE-2 released into the extracellular medium by keratinocytes cultured in the absence and in the presence of the products being studied, and stimulated even with interferon-gamma (IFN-γ) or with PMA (phorbol-12-myristate-13-acetate).
The study was carried out on keratinocytes isolated from foreskin of young children (strain K02-1H6).
1. Treatment of the cells for 48 h with the product being studied before induction of the irritative stress; 2. induction of the irritative stress: IFN-γ (1000 U/ml); 3. incubation of the “activated” cells, for 24 h, in the presence of the product being studied; 4. assay: IL-8 (extracellular) and IL-1α (intracellular). Cellular protein assay.
Tables 32 to 34 below group together the amounts of IL-8 obtained after activation of the cells (+IFN-γ), and also the basal amounts (−IFN-γ). The IFN-γ-induced production of IL-8 and the anti-inflammatory activity (AIA) were calculated, for each concentration of active agent, according to: AIA=[(IL-8(control cells+IFN)−[…]/IL-8(control cells+IFN)]×100

CC1OC(O[C@@H]2C(CO)OC(OCC3OC(OC(=O)C4CC(C)(C)CC5C6=CCC7C(CC(O)C8C(C)(CO)C(O)C(O)CC78C)C6(C)CCC45)[C@@H](O)C(O)[C@@H]3O)[C@@H](O)C2O)[C@@H](O)C(O)[C@H]1O (stereo partly drawn) [Terminoloside, 1-[O-α-L-rhamnopyranosyl-(1-4)-O-β-glucopyranosol-(1-6)]-O-β-D-glucopyranose 2α,3β,6β,23-tetrahydroxyolea-12-en-28-oate]
Viability (72 h), % of control ([1]; 0.25 mg/ml): 101% | Viability (72 h), % of control ([1]; 0.5 mg/ml): 103% | Viability (72 h), % of control ([1]; 0.75 mg/ml): 103% | Viability (72 h), % of control ([1]; 1.0 mg/ml): 102% | Viability (72 h), % of control ([1]; 2.5 mg/ml): 99% | Viability (72 h), % of control ([1]; 5 mg/ml): 96% | Viability (72 h), % of control ([1]; 10 mg/ml): 69% | nontoxic concentrations ([1]; K02-1H4, 72 h of incubation): less than or equal to 2.5 mg/ml | PGE-2 production (+PMA minus −PMA) (PGE-2; Example 12, 0.1 mg/ml): 494.2 | PGE-2 production (+PMA minus −PMA) (PGE-2; Example 12, 0.25 mg/ml): 441.0 | PGE-2 production (+PMA minus −PMA) (PGE-2; Example 12, 0.5 mg/ml): 279.9 | PGE-2 production (+PMA minus −PMA) (PGE-2; Example 12, 1 mg/ml): 115.2 | PGE-2 (extracellular) (PGE-2; 0.1 mg/ml): 660.0 pg/μg prot | PGE-2 (extracellular) (PGE-2; 0.25 mg/ml): 606.80 pg/μg prot | PGE-2 (extracellular) (PGE-2; 0.5 mg/ml): 445.7 pg/μg prot | PGE-2 (extracellular) (PGE-2; 1 mg/ml): 321.0 pg/μg prot | Anti-inflammatory activity (%), PGE-2 (PGE-2; Example 12, PMA 10 ng/ml, 1 mg/ml): 68.6% | inhibition at 100 µg/mL (PGE-2; Homo sapiens, Keratinocyte, Example 12, PMA 10 ng/ml, 0.1 mg/ml, read-out: Anti-inflammatory activity (%), PGE-2): 0% | inhibition at 250 µg/mL (PGE-2; Homo sapiens, Keratinocyte, Example 12, PMA 10 ng/ml, 0.25 mg/ml, read-out: Anti-inflammatory activity (%), PGE-2): 10.8% | inhibition at 500 µg/mL (PGE-2; Homo sapiens, Keratinocyte, Example 12, PMA 10 ng/ml, 0.5 mg/ml, read-out: Anti-inflammatory activity (%), PGE-2): 43.4% | inhibition at 1000 µg/mL (PGE-2; Homo sapiens, Keratinocyte, Example 12, PMA 10 ng/ml, 1 mg/ml, read-out: Anti-inflammatory activity (%), PGE-2): 69% | Viability (24 h), % of control ([2]; 0.05 mg/ml): 105% | Viability (24 h), % of control ([2]; 0.1 mg/ml): 104% | Viability (24 h), % of control ([2]; 0.25 mg/ml): 105% | Viability (24 h), % of control ([2]; 0.5 mg/ml): 105% | Viability (24 h), % of control ([2]; 1 mg/ml): 104% | Viability (24 h), % of control ([2]; 2.5 mg/ml): 100% | Viability (24 h), % of control ([2]; 5 mg/ml): 81% | Viability (24 h), % of control ([2]; 10 mg/ml): 73% | Viability (72 h), % of control ([2]; 0.1 mg/ml): 100% | Viability (72 h), % of control ([2]; 0.25 mg/ml): 101% | Viability (72 h), % of control ([2]; 0.5 mg/ml): 101% | Viability (72 h), % of control ([2]; 0.75 mg/ml): 103% | Viability (72 h), % of control ([2]; 1 mg/ml): 102% | Viability (72 h), % of control ([2]; 2.5 mg/ml): 103% | Viability (72 h), % of control ([2]; 5 mg/ml): 93% | Viability (72 h), % of control ([2]; 7.5 mg/ml): 86% | Viability (72 h), % of control ([2]; 10 mg/ml): 69% | concentrations inducing no significant modification of the cell response to Neutral Red ([2]; HaCaT, 24 h of contact): 2500 µg/mL | IL-8 (IL-8; 0.1 mg/ml): 0.862 pg/μg prot | IL-8 (IL-8; 0.25 mg/ml): 0.762 pg/μg prot | IL-8 (IL-8; 0.5 mg/ml): 0.708 pg/μg prot | IL-8 (IL-8; 1 mg/ml): 0.492 pg/μg prot | inhibition at 100 µg/mL (IL-8; Homo sapiens, Keratinocyte, Example 12, IFN-γ 1000 U/ml, 0.1 mg/ml, read-out: Anti-inflammatory activity (%), IL-8): 0% | inhibition at 250 µg/mL (IL-8; Homo sapiens, Keratinocyte, Example 12, IFN-γ 1000 U/ml, 0.25 mg/ml, read-out: Anti-inflammatory activity (%), IL-8): 9% | inhibition at 500 µg/mL (IL-8; Homo sapiens, Keratinocyte, Example 12, IFN-γ 1000 U/ml, 0.5 mg/ml, read-out: Anti-inflammatory activity (%), IL-8): 15% | inhibition at 1000 µg/mL (IL-8; Homo sapiens, Keratinocyte, Example 12, IFN-γ 1000 U/ml, 1 mg/ml, read-out: Anti-inflammatory activity (%), IL-8): 42%
